Residues, ends and D or L forms follow the SMILES beside them.
How the values were obtained:
Test in all cases: In-house protein microarrays (with or without 5 mM DTT), protein named per line
Type in all cases: binding
SH2 and PTB domains [1] = target: T1, SH2 and PTB domains (Homo sapiens, UniProt P43405)
T1 construct: thioredoxin; made in house; host or cells: BL21(DE3)pLysS E. coli
Experimental: (§1) 300 pL of purified recombinant proteins and a thioredoxin tag control were spotted at a concentration of ∼40 µM in duplicate onto aldehyde-coated microscope slides (Erie Scientific Company, Portsmouth, NH) using a Nano-Plotter (NP) 2.1/E noncontact microarrayer (GeSiM, Munich, Germany). 16 identical microarrays per slide were printed in a 2×8 (column by row) format with distances of 9 mm between individual arrays; each array consisted of a 14×14 configuration of spots 400 µm apart. Following printing at a constant humidity level of 50%, slides were desiccated overnight and stored at −80°C. For peptide probing, array slides were transferred to 96-well microplates (TeleChem International, Inc., Sunnyvale, CA) and sandwiched with silicone gaskets. Prior to peptide addition, aldehyde sites were quenched with buffer B (20 mM HEPES, 100 mM KCl, 0.1% Tween-20, 5 mM DTT, pH 7.8) containing 1% bovine serum albumin (BSA) (w/v) for one hour at room temperature; moderate agitation was applied in a plate shaker (IKA, Germany) to displace glycerol from the surface area of protein sample spots. […] The arrays were subsequently washed once with 300 µL of buffer B and once with 300 µL of ddH2O. Residual water was removed by centrifugation; slides were stored under desiccation in the dark until analysis.
(§2) Microarray slides were scanned at a resolution of 10 µm using a GenePix 4000B microarray scanner and analyzed using GenePix Pro v6.0 software (Molecular Devices, Sunnyvale, CA). To independently visualize protein spots irrespective of peptide binding, samples were printed simultaneously with 400 nM of Cyanine-5 (Cy5) labeled bovine serum albumin (BSA). […] Following spot layout identification via Cy5 labeled BSA, the mean fluorescence intensity of rhodamine for duplicate protein spots was quantified and normalized by subtracting the corresponding mean fluorescence intensity of thioredoxin. Normalized fluorescence values were then imported into MATLAB and KDs determined as previously described.

SH2 and PTB domains [2] = target: T2, SH2 and PTB domains (Homo sapiens, UniProt P16885); conditions: protein PLCG2-NC
T2 construct: thioredoxin; made in house; host or cells: BL21(DE3)pLysS E. coli
T2 sequence (P16885 1-1265): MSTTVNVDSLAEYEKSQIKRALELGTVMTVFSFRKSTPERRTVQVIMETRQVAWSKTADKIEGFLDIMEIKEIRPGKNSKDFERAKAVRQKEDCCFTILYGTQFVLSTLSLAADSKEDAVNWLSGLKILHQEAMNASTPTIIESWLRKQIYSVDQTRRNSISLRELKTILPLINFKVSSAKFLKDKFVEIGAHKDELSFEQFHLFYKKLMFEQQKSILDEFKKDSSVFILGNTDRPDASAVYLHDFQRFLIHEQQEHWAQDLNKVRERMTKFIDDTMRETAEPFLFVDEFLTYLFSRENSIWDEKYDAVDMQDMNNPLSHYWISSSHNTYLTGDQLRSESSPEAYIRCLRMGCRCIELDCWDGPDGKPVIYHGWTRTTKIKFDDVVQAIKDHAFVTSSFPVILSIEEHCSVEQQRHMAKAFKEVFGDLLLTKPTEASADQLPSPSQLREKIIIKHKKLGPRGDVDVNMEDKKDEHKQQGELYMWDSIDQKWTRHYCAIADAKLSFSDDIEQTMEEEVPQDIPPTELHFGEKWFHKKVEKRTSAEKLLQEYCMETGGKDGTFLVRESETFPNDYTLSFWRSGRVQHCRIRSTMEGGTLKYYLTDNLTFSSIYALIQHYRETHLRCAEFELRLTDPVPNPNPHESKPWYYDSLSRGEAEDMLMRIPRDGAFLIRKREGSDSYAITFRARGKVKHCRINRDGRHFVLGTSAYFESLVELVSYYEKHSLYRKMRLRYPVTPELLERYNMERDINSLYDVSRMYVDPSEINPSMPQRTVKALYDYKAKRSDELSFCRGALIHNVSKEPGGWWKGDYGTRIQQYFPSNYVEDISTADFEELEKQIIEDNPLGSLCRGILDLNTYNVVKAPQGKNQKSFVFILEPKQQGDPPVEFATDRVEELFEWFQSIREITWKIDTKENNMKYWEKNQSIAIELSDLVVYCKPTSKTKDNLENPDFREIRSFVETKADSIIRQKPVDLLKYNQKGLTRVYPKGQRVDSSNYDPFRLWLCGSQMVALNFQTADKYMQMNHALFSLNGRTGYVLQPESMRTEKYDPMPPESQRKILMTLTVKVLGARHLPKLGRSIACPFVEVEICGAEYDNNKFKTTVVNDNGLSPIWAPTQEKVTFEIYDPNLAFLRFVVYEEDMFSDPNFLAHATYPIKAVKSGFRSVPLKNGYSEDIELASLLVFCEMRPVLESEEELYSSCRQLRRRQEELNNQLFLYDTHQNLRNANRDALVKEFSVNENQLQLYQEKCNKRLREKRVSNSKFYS
Experimental: as §1, §2

SH2 and PTB domains [3] = target: T3, SH2 and PTB domains (Homo sapiens, UniProt P12931); conditions: protein SRC
T3 construct: thioredoxin; made in house; host or cells: BL21(DE3)pLysS E. coli
T3 sequence (P12931 whole entry, the tested form may be a part): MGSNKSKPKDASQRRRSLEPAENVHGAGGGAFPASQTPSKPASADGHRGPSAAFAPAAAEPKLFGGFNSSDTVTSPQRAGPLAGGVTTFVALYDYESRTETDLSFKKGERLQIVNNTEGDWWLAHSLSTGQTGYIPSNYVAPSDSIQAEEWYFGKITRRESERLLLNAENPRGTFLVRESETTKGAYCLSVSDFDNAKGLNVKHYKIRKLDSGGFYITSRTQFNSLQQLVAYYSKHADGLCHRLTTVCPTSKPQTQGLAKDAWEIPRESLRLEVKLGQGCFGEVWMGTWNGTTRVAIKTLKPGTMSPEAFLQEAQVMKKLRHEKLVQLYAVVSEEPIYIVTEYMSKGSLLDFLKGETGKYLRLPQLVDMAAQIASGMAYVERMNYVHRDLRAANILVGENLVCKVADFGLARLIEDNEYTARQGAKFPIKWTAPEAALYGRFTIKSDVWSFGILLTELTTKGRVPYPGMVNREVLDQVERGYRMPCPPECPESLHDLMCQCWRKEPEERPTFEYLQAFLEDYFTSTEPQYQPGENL
Experimental: as §1, §2

SH2 and PTB domains [4] = target: T4, SH2 and PTB domains (Homo sapiens, UniProt P07947); conditions: protein YES1
T4 construct: thioredoxin; made in house; host or cells: BL21(DE3)pLysS E. coli
T4 sequence (P07947 whole entry, the tested form may be a part): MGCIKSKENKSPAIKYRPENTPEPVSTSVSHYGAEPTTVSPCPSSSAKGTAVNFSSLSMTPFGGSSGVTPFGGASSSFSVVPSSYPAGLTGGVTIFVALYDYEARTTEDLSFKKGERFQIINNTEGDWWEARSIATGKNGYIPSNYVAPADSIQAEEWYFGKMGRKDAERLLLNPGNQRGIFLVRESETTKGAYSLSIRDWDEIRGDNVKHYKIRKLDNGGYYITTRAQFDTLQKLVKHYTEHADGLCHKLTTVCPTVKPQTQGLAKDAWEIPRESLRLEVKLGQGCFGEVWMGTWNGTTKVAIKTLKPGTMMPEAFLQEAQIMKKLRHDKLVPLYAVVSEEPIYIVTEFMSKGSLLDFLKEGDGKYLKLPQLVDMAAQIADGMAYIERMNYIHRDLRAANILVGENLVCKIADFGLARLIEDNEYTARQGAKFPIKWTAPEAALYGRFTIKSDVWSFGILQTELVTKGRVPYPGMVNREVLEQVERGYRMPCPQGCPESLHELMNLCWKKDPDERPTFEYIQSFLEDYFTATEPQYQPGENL
Experimental: as §1, §2

SH2 and PTB domains [5] = target: T5, SH2 and PTB domains (Homo sapiens, UniProt O43639); conditions: protein NCK2; PM assay replicate # 39307; array fabrication # 39286
T5 construct: thioredoxin; made in house; host or cells: BL21(DE3)pLysS E. coli
T5 sequence (O43639 whole entry, the tested form may be a part): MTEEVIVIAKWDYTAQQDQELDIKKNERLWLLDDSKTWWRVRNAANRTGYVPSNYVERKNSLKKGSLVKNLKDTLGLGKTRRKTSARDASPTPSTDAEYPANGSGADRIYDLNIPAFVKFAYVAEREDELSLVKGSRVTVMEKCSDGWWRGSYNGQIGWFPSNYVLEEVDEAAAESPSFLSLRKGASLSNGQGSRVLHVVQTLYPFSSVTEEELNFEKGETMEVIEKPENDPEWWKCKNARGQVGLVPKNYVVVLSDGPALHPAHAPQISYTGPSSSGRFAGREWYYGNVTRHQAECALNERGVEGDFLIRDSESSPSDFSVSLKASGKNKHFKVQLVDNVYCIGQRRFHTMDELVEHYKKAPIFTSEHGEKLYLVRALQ
Experimental: as §1, §2

SH2 and PTB domains [6] = target: T6, SH2 and PTB domains (Homo sapiens, UniProt Q9BRG2); conditions: protein SH2D3A; PM assay replicate # 39307; array fabrication # 39286
T6 construct: thioredoxin; made in house; host or cells: BL21(DE3)pLysS E. coli
T6 sequence (Q9BRG2 whole entry, the tested form may be a part): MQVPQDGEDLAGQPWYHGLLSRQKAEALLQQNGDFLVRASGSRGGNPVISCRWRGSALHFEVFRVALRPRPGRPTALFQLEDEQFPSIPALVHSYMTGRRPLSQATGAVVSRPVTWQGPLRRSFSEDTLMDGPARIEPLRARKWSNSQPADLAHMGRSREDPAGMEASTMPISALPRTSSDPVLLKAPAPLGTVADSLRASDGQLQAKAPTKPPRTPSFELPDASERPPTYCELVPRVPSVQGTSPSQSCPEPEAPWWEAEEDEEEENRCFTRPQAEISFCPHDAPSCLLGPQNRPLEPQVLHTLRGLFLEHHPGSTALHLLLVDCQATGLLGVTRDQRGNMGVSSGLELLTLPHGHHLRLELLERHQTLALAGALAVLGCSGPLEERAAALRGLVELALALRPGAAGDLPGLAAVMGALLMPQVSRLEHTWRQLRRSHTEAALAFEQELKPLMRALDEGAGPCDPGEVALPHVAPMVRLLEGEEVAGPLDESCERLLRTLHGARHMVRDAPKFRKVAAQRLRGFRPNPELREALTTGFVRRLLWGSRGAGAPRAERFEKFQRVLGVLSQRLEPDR
Experimental: as §1, §2

SH2 and PTB domains [7] = target: T7, SH2 and PTB domains (Homo sapiens, UniProt P51451); conditions: protein BLK
T7 construct: thioredoxin; made in house; host or cells: BL21(DE3)pLysS E. coli
T7 sequence (P51451 whole entry, the tested form may be a part): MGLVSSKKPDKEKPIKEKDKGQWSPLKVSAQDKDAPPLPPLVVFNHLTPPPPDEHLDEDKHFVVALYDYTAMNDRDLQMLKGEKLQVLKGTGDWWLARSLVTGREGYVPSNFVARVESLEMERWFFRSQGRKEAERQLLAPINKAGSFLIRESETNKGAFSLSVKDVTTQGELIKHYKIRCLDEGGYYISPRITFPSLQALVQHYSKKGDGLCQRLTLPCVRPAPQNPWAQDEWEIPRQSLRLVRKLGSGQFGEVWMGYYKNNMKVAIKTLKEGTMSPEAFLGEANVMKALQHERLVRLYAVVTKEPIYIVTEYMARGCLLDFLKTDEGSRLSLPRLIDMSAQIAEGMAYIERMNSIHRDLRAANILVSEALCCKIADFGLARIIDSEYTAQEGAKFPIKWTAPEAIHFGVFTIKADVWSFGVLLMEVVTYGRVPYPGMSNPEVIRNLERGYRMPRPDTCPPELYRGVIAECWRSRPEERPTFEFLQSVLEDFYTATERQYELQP
Experimental: as §1, §2

SH2 and PTB domains [8] = target: T8, SH2 and PTB domains (Homo sapiens, UniProt O00459); conditions: protein PIK3R2-NC
T8 construct: thioredoxin; made in house; host or cells: BL21(DE3)pLysS E. coli
T8 sequence (O00459 whole entry, the tested form may be a part): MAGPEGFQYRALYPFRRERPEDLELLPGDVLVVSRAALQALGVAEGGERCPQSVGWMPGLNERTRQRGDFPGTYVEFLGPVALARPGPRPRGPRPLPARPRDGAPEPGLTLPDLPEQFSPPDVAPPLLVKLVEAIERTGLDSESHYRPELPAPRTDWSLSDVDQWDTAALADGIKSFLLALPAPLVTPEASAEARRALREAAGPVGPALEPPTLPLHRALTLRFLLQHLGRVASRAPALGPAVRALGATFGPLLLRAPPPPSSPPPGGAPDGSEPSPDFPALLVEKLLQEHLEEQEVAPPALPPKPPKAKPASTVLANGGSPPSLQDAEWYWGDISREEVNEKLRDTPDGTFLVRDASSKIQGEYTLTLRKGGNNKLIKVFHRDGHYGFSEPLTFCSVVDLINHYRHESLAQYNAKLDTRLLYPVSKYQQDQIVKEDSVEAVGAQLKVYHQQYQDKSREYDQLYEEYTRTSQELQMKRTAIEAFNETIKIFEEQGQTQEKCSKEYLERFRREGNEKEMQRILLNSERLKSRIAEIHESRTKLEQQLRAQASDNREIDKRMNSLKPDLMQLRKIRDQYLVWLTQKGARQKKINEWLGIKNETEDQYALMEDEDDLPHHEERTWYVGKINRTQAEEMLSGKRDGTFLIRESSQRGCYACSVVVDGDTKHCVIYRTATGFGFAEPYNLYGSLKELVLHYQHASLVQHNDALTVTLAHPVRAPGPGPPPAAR
Experimental: as §1, §2

[9] = PM assay replicate # 39331, array fabrication # 39329
[10] = PM assay replicate # 39307, array fabrication # 39286
[11] = PM assay replicate # 39352, array fabrication # 39336
[12] = protein SYK-NC, PM assay replicate # 39307, array fabrication # 39286
[13] = protein SYK-NC, PM assay replicate # 39351, array fabrication # 39336
[14] = protein SYK-NC, PM assay replicate # 39352, array fabrication # 39336
[15] = PM assay replicate # 39351, array fabrication # 39336
[16] = PM assay replicate # 39337, array fabrication # 39329

| Structure (SMILES) | Kd (SH2 and PTB domains [4]; [10]) [µM] | Kd (SH2 and PTB domains [4]; [11]) [µM] | Kd (SH2 and PTB domains [1]; [12]) [µM] | Kd (SH2 and PTB domains [1]; [13]) [µM] | Kd (SH2 and PTB domains [1]; [14]) [µM] | Kd (SH2 and PTB domains [2]; [11]) [µM] | Kd (SH2 and PTB domains [5]) [µM] | Kd (SH2 and PTB domains [6]) [µM] | Kd (SH2 and PTB domains [3]; [10]) [µM] | Kd (SH2 and PTB domains [7]; [10]) [µM] | Kd (SH2 and PTB domains [7]; [15]) [µM] | Kd (SH2 and PTB domains [7]; [11]) [µM] | other results |
| --- | --- | --- | --- | --- | --- | --- | --- | --- | --- | --- | --- | --- | --- |
| CC(C)C[C@H](NC(=O)[C@@H]1CCCN1)C(=O)N[C@@H](CCC(N)=O)C(=O)N[C@@H](CCCNC(=N)N)C(=O)N[C@@H](Cc1ccc(OP(=O)(O)O)cc1)C(=O)N[C@@H](CO)C(=O)N[C@@H](CCC(=O)O)C(=O)N[C@@H](CC(=O)O)C(=O)N1CCC[C@H]1C(=O)N[C@H](C(=O)N[C@H](C(=O)N1CCC[C@H]1C(=O)N[C@@H](CC(=O)O)C(=O)O)C(C)C)[C@@H](C)O [ErbB2 pY1112] (HELM PEPTIDE1{P.L.Q.R.[O=C([C@H](Cc1ccc(OP(=O)(O)O)cc1)N[*:1])[*:2]].S.E.D.P.T.V.P.D}$$$$V2.0) | – | – | – | – | – | – | – | – | – | – | – | – | Kd (SH2 and PTB domains [1]; protein SYK-N, PM assay replicate # 39331, array fabrication # 39329): 3.62 µM; Kd (SH2 and PTB domains [1]; protein SYK-N, PM assay replicate # 39336, array fabrication # 39329): 14.58 µM; Kd (SH2 and PTB domains [1]; protein SYK-NC, PM assay replicate # 39331, array fabrication # 39329): 0.89 µM; Kd (SH2 and PTB domains [1]; protein SYK-NC, PM assay replicate # 39336, array fabrication # 39329): 0.80 µM; Kd (SH2 and PTB domains [2]; [9]): 5.53 µM; Kd (SH2 and PTB domains [2]; PM assay replicate # 39336, array fabrication # 39329): 0.93 µM; Kd (SH2 and PTB domains [3]; [9]): 183.21 µM |
| CC[C@H](C)[C@H](NC(=O)[C@H](CC(N)=O)NC(=O)[C@H](CC(N)=O)NC(=O)[C@H](CCCCN)NC(=O)[C@H](CC(C)C)NC(=O)[C@H](Cc1ccc(OP(=O)(O)O)cc1)NC(=O)[C@H](CCC(=O)O)NC(=O)[C@H](C)NC(=O)[C@H](CCCCN)NC(=O)CNC(=O)[C@H](CC(C)C)NC(=O)[C@@H](NC(=O)[C@H](CC(N)=O)NC(=O)[C@H](C)NC(=O)[C@@H](N)Cc1ccccc1)[C@@H](C)O)C(=O)N[C@@H](CC(C)C)C(=O)N[C@@H](CO)C(=O)N[C@@H](CC(=O)O)C(=O)O [ErbB4 pY1221 (18-mer)] (HELM PEPTIDE1{F.A.N.T.L.G.K.A.E.[O=C([C@H](Cc1ccc(OP(=O)(O)O)cc1)N[*:1])[*:2]].L.K.N.N.I.L.S.D}$$$$V2.0) | 0.82 | 1.32 | 0.29 | 0.81 | 1.29 | 1.25 | 0.21 | 0.61 | 0.44 | 0.58 | 1.15 | 1.16 | Kd (SH2 and PTB domains [1]; protein SYK-N, PM assay replicate # 39307, array fabrication # 39286): 9.49 µM; Kd (SH2 and PTB domains [1]; protein SYK-N, PM assay replicate # 39352, array fabrication # 39336): 15.60 µM; Kd (SH2 and PTB domains [2]; [10]): 1.38 µM; Kd (SH2 and PTB domains [8]; [10]): 1.34 µM |
| CCN(CC)c1ccc2c(-c3ccc(C(=O)N[C@@H](CC(N)=O)C(=O)NCC(=O)N4CCC[C@H]4C(=O)N4CCC[C@H]4C(=O)N[C@@H](CCCCN)C(=O)N[C@@H](C)C(=O)N[C@@H](CCC(=O)O)C(=O)N[C@@H](CC(=O)O)C(=O)N[C@@H](CCC(=O)O)C(=O)N[C@@H](Cc4ccc(OP(=O)(O)O)cc4)C(=O)N[C@H](C(=O)N[C@@H](CC(N)=O)C(=O)N[C@@H](CCC(=O)O)C(=O)N4CCC[C@H]4C(=O)N[C@@H](CC(C)C)C(=O)N[C@@H](Cc4ccc(O)cc4)C(=O)N[C@@H](CC(C)C)C(=O)N[C@@H](CC(=O)O)C(=O)O)C(C)C)cc3C(=O)[O-])c3ccc(=[N+](CC)CC)cc-3oc2c1 [ErbB4 1202 (18-mer)] (HELM PEPTIDE1{[CCN(CC)c1ccc2c(-c3ccc(C(=O)[*:2])cc3C(=O)[O-])c3ccc(=[N+](CC)CC)cc-3oc2c1].N.G.P.P.K.A.E.D.E.[O=C([C@H](Cc1ccc(OP(=O)(O)O)cc1)N[*:1])[*:2]].V.N.E.P.L.Y.L.D}$$$$V2.0) | 0.35 | 0.42 | 0.95 | 0.81 | 1.15 | 0.61 | 10.06 | 1.00 | 0.40 | 0.45 | 2.29 | 2.39 | Kd (SH2 and PTB domains [4]; [16]): 1.44 µM; Kd (SH2 and PTB domains [4]; [15]): 1.61 µM; Kd (SH2 and PTB domains [1]; protein SYK-NC, PM assay replicate # 39337, array fabrication # 39329): 1.42 µM; Kd (SH2 and PTB domains [2]; [16]): 1.53 µM; Kd (SH2 and PTB domains [2]; [15]): 0.41 µM; Kd (SH2 and PTB domains [7]; [16]): 7.84 µM; Kd (SH2 and PTB domains [8]; [16]): 0.65 µM |

Source: article PMC3433420 (PLoS ONE, 2012)
